PubChem BioAssay AID1963974 (Molecular Pharmacology Branch, DTP, NCI, 2024)

Test system: 648629-189-R-J1-PDC spheroids with HUVEC/MSC, viability
Test: Anticancer human tumor 648629-189-R-J1-PDC patient-derived bladder carcinoma cell line growth inhibition [PI3K]
Conditions: for IC50: curve of first compound; for viability, T/C: stronger effect = lower value
Summary of the method: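 Complex 3D spheroids (cancer cells + endothelial HUVEC + mesenchymal stem cells); drug pairs of targeted agent x inavolisib/alpelisib/duvelisib/copanlisib; half-log series from ~Cmax, max 10 microM if Cmax unknown; endpoint viability.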

[1] = second compound 0.00316 µM, first compound 0.0316 µM
[2] = second compound 0.00316 µM, first compound 0.1 µM
[3] = second compound 0.00316 µM, first compound 0.316 µM
[4] = second compound 0.00316 µM, first compound 1 µM
[5] = second compound 0.00316 µM, first compound 3.16 µM
[6] = second compound 0.00316 µM, first compound 10 µM
[7] = second compound 0.01 µM, first compound 0.0316 µM
[8] = second compound 0.01 µM, first compound 0.1 µM
[9] = second compound 0.01 µM, first compound 0.316 µM
[10] = second compound 0.01 µM, first compound 1 µM
[11] = second compound 0.01 µM, first compound 3.16 µM
[12] = second compound 0.01 µM, first compound 10 µM
[13] = second compound 0.0316 µM, first compound 0.0316 µM
[14] = second compound 0.0316 µM, first compound 0.1 µM
[15] = second compound 0.0316 µM, first compound 0.316 µM
[16] = second compound 0.0316 µM, first compound 1 µM
[17] = second compound 0.0316 µM, first compound 3.16 µM
[18] = second compound 0.0316 µM, first compound 10 µM
[19] = second compound 0.1 µM, first compound 0.0316 µM
[20] = second compound 0.1 µM, first compound 0.1 µM
[21] = second compound 0.1 µM, first compound 0.316 µM
[22] = second compound 0.1 µM, first compound 1 µM
[23] = second compound 0.1 µM, first compound 3.16 µM
[24] = second compound 0.1 µM, first compound 10 µM
[25] = second compound 0.316 µM, first compound 0.0316 µM
[26] = second compound 0.316 µM, first compound 0.1 µM
[27] = second compound 0.316 µM, first compound 0.316 µM
[28] = second compound 0.316 µM, first compound 1 µM
[29] = second compound 0.316 µM, first compound 3.16 µM
[30] = second compound 0.316 µM, first compound 10 µM
[31] = second compound 1 µM, first compound 0.0316 µM
[32] = second compound 1 µM, first compound 0.1 µM
[33] = second compound 1 µM, first compound 0.316 µM
[34] = second compound 1 µM, first compound 1 µM
[35] = second compound 1 µM, first compound 3.16 µM
[36] = second compound 1 µM, first compound 10 µM
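Note: spheroids exposed to agents for seven days before reading.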
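Throughout, for viability, T/C: percent of vehicle control luminescence where 100% = DMSO treated spheroids.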

SMILES: C#Cc1c(F)ccc2cc(O)cc(-c3ncc4c(N5CC6CCC(C5)N6)nc(OCC56CCCN5CC(F)C6)nc4c3F)c12 (stereo not drawn) + COc1c(OCCCN2CCOCC2)ccc2c3n(c(=NC(=O)c4cnc(N)nc4)nc12)CCN3
- IC50 (second compound 0.00316 µM): > 10 µM
- IC50 (second compound 0.01 µM): > 10 µM
- IC50 (second compound 0.0316 µM): > 10 µM
- IC50 (second compound 0.1 µM): > 10 µM
- IC50 (second compound 0.316 µM): < 0.0316 µM
- IC50 (second compound 1 µM): < 0.0316 µM
- viability, T/C [1]: 107%
- viability, T/C [2]: 100%
- viability, T/C [3]: 96.5%
- viability, T/C [4]: 112%
- viability, T/C [5]: 105%
- viability, T/C [6]: 94.6%
- viability, T/C [7]: 112%
- viability, T/C [8]: 104%
- viability, T/C [9]: 103%
- viability, T/C [10]: 113%
- viability, T/C [11]: 102%
- viability, T/C [12]: 103%
- viability, T/C [13]: 89.4%
- viability, T/C [14]: 91.2%
- viability, T/C [15]: 85.9%
- viability, T/C [16]: 92.2%
- viability, T/C [17]: 79.7%
- viability, T/C [18]: 91.5%
- viability, T/C [19]: 67.2%
- viability, T/C [20]: 61.3%
- viability, T/C [21]: 58.2%
- viability, T/C [22]: 60.6%
- viability, T/C [23]: 65.1%
- viability, T/C [24]: 57.5%
- viability, T/C [25]: 24.3%
- viability, T/C [26]: 21.2%
- viability, T/C [27]: 18.3%
- viability, T/C [28]: 19.8%
- viability, T/C [29]: 17.9%
- viability, T/C [30]: 5.74%
- viability, T/C [31]: 3.22%
- viability, T/C [32]: 2.48%
- viability, T/C [33]: 2.94%
- viability, T/C [34]: 3.35%
- viability, T/C [35]: 3.07%
- viability, T/C [36]: 0.58%

SMILES: CC(Cn1ccc(-c2ccc(C#N)c(Cl)c2)n1)NC(=O)c1cc(C(C)O)[nH]n1 (stereo not drawn) + COc1c(OCCCN2CCOCC2)ccc2c3n(c(=NC(=O)c4cnc(N)nc4)nc12)CCN3
- IC50 (second compound 0.00316 µM): > 10 µM
- IC50 (second compound 0.01 µM): > 10 µM
- IC50 (second compound 0.0316 µM): > 10 µM
- IC50 (second compound 0.1 µM): > 10 µM
- IC50 (second compound 0.316 µM): < 0.0316 µM
- IC50 (second compound 1 µM): < 0.0316 µM
- viability, T/C [1]: 94.9%
- viability, T/C [2]: 92.4%
- viability, T/C [3]: 97.9%
- viability, T/C [4]: 96.4%
- viability, T/C [5]: 83.8%
- viability, T/C [6]: 73.9%
- viability, T/C [7]: 100%
- viability, T/C [8]: 105%
- viability, T/C [9]: 102%
- viability, T/C [10]: 92.7%
- viability, T/C [11]: 89.1%
- viability, T/C [12]: 74.3%
- viability, T/C [13]: 96.5%
- viability, T/C [14]: 93.5%
- viability, T/C [15]: 95.8%
- viability, T/C [16]: 90.4%
- viability, T/C [17]: 86.5%
- viability, T/C [18]: 70.8%
- viability, T/C [19]: 65.9%
- viability, T/C [20]: 64.1%
- viability, T/C [21]: 77.5%
- viability, T/C [22]: 65.5%
- viability, T/C [23]: 64%
- viability, T/C [24]: 61.5%
- viability, T/C [25]: 23%
- viability, T/C [26]: 18.7%
- viability, T/C [27]: 22.9%
- viability, T/C [28]: 23.2%
- viability, T/C [29]: 26.4%
- viability, T/C [30]: 21.3%
- viability, T/C [31]: 3.56%
- viability, T/C [32]: 3.29%
- viability, T/C [33]: 3.07%
- viability, T/C [34]: 3.97%
- viability, T/C [35]: 4.94%
- viability, T/C [36]: 2.75%

SMILES: CC1(C)CCC(Nc2ncc(C(F)(F)F)c(-c3c[nH]c4c(P(C)(C)=O)c(C#N)ccc34)n2)CN1 (stereo not drawn) + COc1c(OCCCN2CCOCC2)ccc2c3n(c(=NC(=O)c4cnc(N)nc4)nc12)CCN3
- IC50 (second compound 0.00316 µM): < 0.0316 µM
- IC50 (second compound 0.01 µM): < 0.0316 µM
- IC50 (second compound 0.0316 µM): < 0.0316 µM
- IC50 (second compound 0.1 µM): < 0.0316 µM
- IC50 (second compound 0.316 µM): < 0.0316 µM
- IC50 (second compound 1 µM): < 0.0316 µM
- viability, T/C [1]: 25.2%
- viability, T/C [2]: 25.7%
- viability, T/C [3]: 31.6%
- viability, T/C [4]: 31.4%
- viability, T/C [5]: 41.1%
- viability, T/C [6]: 4.79%
- viability, T/C [7]: 28.9%
- viability, T/C [8]: 25.2%
- viability, T/C [9]: 25.1%
- viability, T/C [10]: 30.8%
- viability, T/C [11]: 35.1%
- viability, T/C [12]: 3.26%
- viability, T/C [13]: 26.3%
- viability, T/C [14]: 23.6%
- viability, T/C [15]: 26.5%
- viability, T/C [16]: 27.7%
- viability, T/C [17]: 31%
- viability, T/C [18]: 9.93%
- viability, T/C [19]: 22%
- viability, T/C [20]: 22.2%
- viability, T/C [21]: 19.9%
- viability, T/C [22]: 21.8%
- viability, T/C [23]: 21%
- viability, T/C [24]: 1.86%
- viability, T/C [25]: 15.5%
- viability, T/C [26]: 13.7%
- viability, T/C [27]: 13.2%
- viability, T/C [28]: 16.3%
- viability, T/C [29]: 12.5%
- viability, T/C [30]: 1.02%
- viability, T/C [31]: 6.13%
- viability, T/C [32]: 5.76%
- viability, T/C [33]: 6.72%
- viability, T/C [34]: 8.34%
- viability, T/C [35]: 7.64%
- viability, T/C [36]: 1.32%

SMILES: Cn1cnc2c(F)c(Nc3ccc(Br)cc3Cl)c(C(=O)NOCCO)cc21 + Cc1nc(NC(=O)N2CCCC2C(N)=O)sc1-c1ccnc(C(C)(C)C(F)(F)F)c1
- IC50 (second compound 0.0316 µM): > 3 µM
- IC50 (second compound 0.1 µM): > 3 µM
- IC50 (second compound 0.316 µM): > 3 µM
- IC50 (second compound 1 µM): > 3 µM
- IC50 (second compound 3.16 µM): > 3 µM
- IC50 (second compound 10 µM): < 0.00949 µM
- viability, T/C (second compound 0.0316 µM, first compound 0.00949 µM): 94.3%
- viability, T/C (second compound 0.0316 µM, first compound 0.03 µM): 95.2%
- viability, T/C (second compound 0.0316 µM, first compound 0.0949 µM): 99%
- viability, T/C (second compound 0.0316 µM, first compound 0.3 µM): 90%
- viability, T/C (second compound 0.0316 µM, first compound 0.949 µM): 93%
- viability, T/C (second compound 0.0316 µM, first compound 3 µM): 70.5%
- viability, T/C (second compound 0.1 µM, first compound 0.00949 µM): 92.8%
- viability, T/C (second compound 0.1 µM, first compound 0.03 µM): 90.7%
- viability, T/C (second compound 0.1 µM, first compound 0.0949 µM): 98.1%
- viability, T/C (second compound 0.1 µM, first compound 0.3 µM): 95.4%
- viability, T/C (second compound 0.1 µM, first compound 0.949 µM): 86.2%
- viability, T/C (second compound 0.1 µM, first compound 3 µM): 75.8%
- viability, T/C (second compound 0.316 µM, first compound 0.00949 µM): 94.6%
- viability, T/C (second compound 0.316 µM, first compound 0.03 µM): 93.8%
- viability, T/C (second compound 0.316 µM, first compound 0.0949 µM): 77.2%
- viability, T/C (second compound 0.316 µM, first compound 0.3 µM): 85.2%
- viability, T/C (second compound 0.316 µM, first compound 0.949 µM): 81.7%
- viability, T/C (second compound 0.316 µM, first compound 3 µM): 72.4%
- viability, T/C (second compound 1 µM, first compound 0.00949 µM): 80.7%
- viability, T/C (second compound 1 µM, first compound 0.03 µM): 78.2%
- viability, T/C (second compound 1 µM, first compound 0.0949 µM): 71.3%
- viability, T/C (second compound 1 µM, first compound 0.3 µM): 75.5%
- viability, T/C (second compound 1 µM, first compound 0.949 µM): 72.9%
- viability, T/C (second compound 1 µM, first compound 3 µM): 64.2%
- viability, T/C (second compound 3.16 µM, first compound 0.00949 µM): 54.6%
- viability, T/C (second compound 3.16 µM, first compound 0.03 µM): 60.1%
- viability, T/C (second compound 3.16 µM, first compound 0.0949 µM): 59.2%
- viability, T/C (second compound 3.16 µM, first compound 0.3 µM): 52.1%
- viability, T/C (second compound 3.16 µM, first compound 0.949 µM): 57.1%
- viability, T/C (second compound 3.16 µM, first compound 3 µM): 52.7%
- viability, T/C (second compound 10 µM, first compound 0.00949 µM): 39.5%
- viability, T/C (second compound 10 µM, first compound 0.03 µM): 34.4%
- viability, T/C (second compound 10 µM, first compound 0.0949 µM): 34.7%
- viability, T/C (second compound 10 µM, first compound 0.3 µM): 40.2%
- viability, T/C (second compound 10 µM, first compound 0.949 µM): 44.8%
- viability, T/C (second compound 10 µM, first compound 3 µM): 38.1%
